The values below come from ChEMBL document CHEMBL5579799, “Synthesis and biological evaluation of novel 18F-labeled 2,4-diaminopyrimidine derivatives for detection of ghrelin receptor in the brain” (Bioorg Med Chem Lett, 2024).

Data set [1] deals with Growth hormone secretagogue receptor type 1 (Homo sapiens, UniProt Q92847).
Description: Displacement of [125I]ghrelin from human GHSR assessed as inhibition constant by competitive binding assay
A short description of data set [2]: Ratio of drug concentration in rat brain to plasma at po administration measured after 1 hr.

The structures appear in SMILES notation.

Sequence of Growth hormone secretagogue receptor type 1 (Q92847 whole entry): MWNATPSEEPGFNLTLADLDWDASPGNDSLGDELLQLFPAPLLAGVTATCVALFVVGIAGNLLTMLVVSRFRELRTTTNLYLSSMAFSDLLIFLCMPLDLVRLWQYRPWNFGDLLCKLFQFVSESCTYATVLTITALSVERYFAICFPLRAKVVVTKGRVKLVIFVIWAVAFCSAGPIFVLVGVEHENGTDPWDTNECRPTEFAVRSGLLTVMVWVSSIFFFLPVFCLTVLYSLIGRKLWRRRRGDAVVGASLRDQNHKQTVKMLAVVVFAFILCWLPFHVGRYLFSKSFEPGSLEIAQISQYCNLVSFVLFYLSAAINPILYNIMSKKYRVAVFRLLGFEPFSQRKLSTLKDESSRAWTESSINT

In the case of `Nc1nc(N)c(-c2ccc(NCc3ccc(Cl)cc3)cc2)c(COCc2ccccc2)n1`, the affinity in data set [1], expressed as Ki, was 108 nM. Moreover, the Kp – broadly, tissue or fluid exposure divided by exposure in the circulation – at 1 h in data set [2] turned out to be 3.05.

Regarding `CCc1nc(N)nc(N)c1-c1ccc(NCc2ccc(OCCF)cc2)cc1`, in data set [1], the Ki – broadly, a dissociation constant, usually derived from enzyme kinetics or from competition with a known ligand – is more than 5000 nM.
